These results are taken from patent publication US5106871A, “Anti-ulcer agent comprising chalcone derivative as effective ingredient and novel chalcone derivative” (Tsumura & Co., priority 1986, dated 1992).

Where two headings read alike, the source gives them in different places.

Common to all, as to type: in vivo, male rats of the Wister line
Experiment [1] has as its system gastric mucous membrane. The experiment can be described thus: 0.6N hydrochloric acid-induced gastric mucous membrane damage in rats (Experimental Example 2). The conditions noted are these: for Inhibition Ratio: vs control. The method, then:
A suspension of a compound of formula I in a […] of CMC (carboxymethyl cellulose) was intraabdominally administered in male rats of the Wister line (each group consisting of 10 rats) having a body weight of 180 to 200 g, which had been made to fast for 24 hours, and after 30 minutes, 1 ml of 0.6N hydrochloric acid was orally administered. After 1 hour from the administration of 0.6N hydrochloric acid, the abdominal operation was carried out, and the length of the damage on the gastric mucous membrane was measured as the mucous membrane damage coefficient and compared with the value obtained in the control group in the control group. Note, a 0.5% solution of CMC was intraabdominally administered. Data of the inhibition ratio calculated according to the following formula is shown in Tables 5 through 7: [formula] wherein A stands for the value obtained in the control group and B stands for the value obtained in the group in which the compound of formula I had been administered.

Experiment [2] concerns gastric mucous membrane. The experiment can be described thus: 100% ethanol-induced gastric mucous membrane damage in rats (Experimental Example 1). The following applies: for inhibition in vivo at 100 mg/kg: Rattus norvegicus, 1 h, vs control, read-out: Inhibition Ratio. The protocol:
After 1 hour from the administration of 100% ethanol, the abdominal operation was carried out, and the length of the damaged region on the gastric mucous membrane was measured as the mucous membrane damage coefficient and compared with the value obtained in the control group. Note, a 0.5% solution of CMC not containing a compound of formula I was intraabdominally or orally administered in the control group.

Experiment [3] relates to gastric mucous membrane. In words: 150 mM hydrochloric acid/60% ethanol-induced gastric mucous membrane damage in rats (Experimental Example 3). The following applies: 150 mM HCl/60% ethanol; for Inhibition Ratio: vs control. The method, then: A suspension of a compound of formula I in a 0.5 % solution of CMC (carboxymethyl cellulose) was intraabdominally or orally administered in male rats of the Wister line (each group consisting of 10 rats) having a body weight of 180 to 200 g, which had been made to fast for 24 hours, and after 30 minutes, 1 ml of a liquid mixture of 150 mM hydrochloric acid and 60% ethanol was orally administered. After 1 hour from the administration of the liquid mixture of 150 mM hydrochloric acid and 60% ethanol, the abdominal operation was carried out, and the length of the damage on the gastric mucous membrane was measured as the mucous membrane damage coefficient and compared with the value obtained in the control group. Note, a 0.5% solution of CMC not containing a compound of formula I was intra-abdominally or orally administered in the control group. Data of the inhibition ratio calculated according to the following formula is shown in Tables 8 through 10: [formula] wherein A stands for the value obtained in the control group and B stands for the value obtained in the group in which the compound of formula I had been administered.

The mark [4] stands for this setting: Table 3, 100 mg/kg i.p., control 72.63.
Where [5] appears, read: Table 6, 100 mg/kg i.p., control 106.3.
Where [6] appears, read: Table 9, 30 mg/kg p.o., control 84.3.
Setting [7] is: Table 10, 30 mg/kg i.p., control 110.7.
Setting [8] is: Table 4, 100 mg/kg i.p., control 72.3.
Setting [9] is: Table 8, 100 mg/kg p.o., control 119.0.

As to `COc1ccc(CCC(=O)c2ccc(OC)c(CCC(C)C)c2OCC(=O)O)cc1` [Specific Example 3, 1-(carboxymethoxy-4-methoxy-3-isopentylphenyl)-3-(4-methoxyphenyl)-1-propanone], the “Mucous Membrane Damage Coefficient” value in the experiment with gastric mucous membrane [1] (Table 5, 100 mg/kg i.p., control 65.8) is 61.8 mm; with gastric mucous membrane [2] (Table 1, 100 mg/kg i.p., control 102.6) it was 37.6 mm; in the experiment with gastric mucous membrane [2] (Table 2, 100 mg/kg p.o., control 87.7), 6.0 mm. In the experiment with gastric mucous membrane [1] (Table 5, 100 mg/kg i.p.), the “Inhibition Ratio” value came to 68.1%. Besides, the inhibition in vivo at 100 mg/kg with gastric mucous membrane [2] (ip, Table 1, 100 mg/kg i.p.) worked out at 63.4%; with gastric mucous membrane [2] (po, Table 2, 100 mg/kg p.o.), 93.2%.
On to `COc1cc(CCC(=O)c2c(OC)cc(OC)c(CCC(C)C)c2OCC(=O)O)ccc1O` [Specific Example 5, 1-(2-carboxymethoxy-4,6-dimethoxy-3-isopentylphenyl)-3-(4-hydroxy-3-methoxyphenyl)-1-propanone], for which, in the experiment on gastric mucous membrane [2] (ip, Table 3, 100 mg/kg i.p.), the inhibition in vivo at 100 mg/kg is 27.9%. In the experiment on gastric mucous membrane [2] (setting [4]), the “Mucous Membrane Damage Coefficient” value was 52.38 mm.
On the same counts, the results for `COc1ccc(CCC(=O)c2c(OC)cc(OC)c(CCC(C)C)c2OCC(=O)O)cc1O` [Specific Example 6, 1-(2-carboxymethoxy-4,6-dimethoxy-3-isopentylphenyl)-3-(3-hydroxy-4-methoxyphenyl)-1-propanone] are 32.4% and 49.13 mm.
With `COc1cc(CCC(=O)c2c(OC)cc(OC)c(CCC(C)C)c2OCC(=O)O)cc(OC)c1O` [Specific Example 7, 1-(2-carboxymethoxy-4,6-dimethoxy-3-isopentylphenyl)-3-(4-hydroxy-3,5-dimethoxyphenyl)-1-propanone], in the experiment on gastric mucous membrane [2] (ip, Table 3, 100 mg/kg i.p.), the inhibition in vivo at 100 mg/kg is 32.5%. In addition, the “Mucous Membrane Damage Coefficient” value with gastric mucous membrane [2] (setting [4]) turned out to be 49.00 mm.
In the case of `COc1ccc(/C=C/C(=O)c2ccc(OC)c(CC=C(C)C)c2OCC(=O)O)cc1` [Specific Example 8, 2'-carboxymethoxy-4,4'-dimethoxy-3'-(3-methyl-2-butenyl)chalcone], the “Mucous Membrane Damage Coefficient” value in the experiment on gastric mucous membrane [1] (setting [5]) is on record as 62.4 mm; in the experiment on gastric mucous membrane [2] (setting [4]), 15.63 mm. Also, the “Inhibition Ratio” value with gastric mucous membrane [1] (Table 6, 100 mg/kg i.p.) is 41.3%. The inhibition in vivo at 100 mg/kg with gastric mucous membrane [2] (ip, Table 3, 100 mg/kg i.p.) was 78.5%.
Take `COc1ccc(/C=C/C(=O)c2c(OC)cc(OC)c(CCC(C)C)c2OCC(=O)O)cc1` [Specific Example 9, 2'-carboxymethoxy-4,4',6'-trimethoxy-3'-isopentylchalcone]: the results for the “Mucous Membrane Damage Coefficient” value in the experiment on gastric mucous membrane [1] (setting [5]) and in the experiment with gastric mucous membrane [2] (setting [4]) were 39.6 mm and 5.00 mm, respectively. Besides, the “Inhibition Ratio” value in the experiment on gastric mucous membrane [1] (Table 6, 100 mg/kg i.p.) is given as 62.3%. In the experiment on gastric mucous membrane [2] (ip, Table 3, 100 mg/kg i.p.), the inhibition in vivo at 100 mg/kg stood at 93.1%.
The matching figures for `COc1ccc(CCC(=O)c2c(OC)cc(OC)cc2OCC(=O)O)cc1` [Specific Example 11, 1-(2-carboxymethoxy-4,6-dimethoxyphenyl)-3-(4-methoxyphenyl)-1-propanone]: 36.6 mm, 5.25 mm, 65.6% and 92.8%.
`COc1ccc(CCC(=O)c2c(OC)cc(OC)c(CC=C(C)C)c2OCC(=O)O)cc1` [Specific Example 12, 1-[2-carboxymethoxy-4,6-dimethoxy-3-(3-methyl-2-butenyl)phenyl]-3-(4-methoxyphenyl) -propanone]: the “Mucous Membrane Damage Coefficient” value in the experiment on gastric mucous membrane [1] (setting [5]) was determined as 76.6 mm; in the experiment with gastric mucous membrane [2] (setting [4]), 41.25 mm. In addition, the “Inhibition Ratio” value in the experiment with gastric mucous membrane [1] (Table 6, 100 mg/kg i.p.) is 27.8%. For the same compound, the inhibition in vivo at 100 mg/kg with gastric mucous membrane [2] (ip, Table 3, 100 mg/kg i.p.) worked out at 43.2%.
On to `O=C(/C=C/c1ccc(O)cc1)c1ccc(O)cc1O` [Specific Example 15, 2',4,4'-trihydroxychalcone], for which the “Mucous Membrane Damage Coefficient” value in the experiment with gastric mucous membrane [3] (setting [6]) was determined as 30.0 mm; with gastric mucous membrane [3] (setting [7]) it was 49.5 mm. Besides, the “Inhibition Ratio” value in the experiment with gastric mucous membrane [3] (Table 9, 30 mg/kg p.o.) is listed as 64.4%; in the experiment with gastric mucous membrane [3] (Table 10, 30 mg/kg i.p.) it was 55.3%.
Take `COc1ccc(/C=C/C(=O)c2ccc(OC)c(CC=C(C)C)c2O)cc1` [Specific Example 16, 2'-hydroxy-4,4'-dimethoxy-3'-(3-methyl-2-butenyl)chalcone]: the inhibition in vivo at 100 mg/kg in the experiment on gastric mucous membrane [2] (ip, Table 4, 100 mg/kg i.p.) amounted to 36.4%. Also, in the experiment with gastric mucous membrane [2] (setting [8]), the “Mucous Membrane Damage Coefficient” value came to 46.0 mm.
As to `O=C(/C=C/c1ccc(O)c(O)c1)c1ccc(O)cc1O` [Specific Example 19, 2',3,4,4'-tetrahydroxychalcone], the “Mucous Membrane Damage Coefficient” value in the experiment with gastric mucous membrane [3] (setting [6]) came to 10.5 mm. For the same compound, the “Inhibition Ratio” value with gastric mucous membrane [3] (Table 9, 30 mg/kg p.o.) was found to be 87.5%.
With `O=C(CCc1ccc(O)cc1)c1ccc(O)cc1O` [Specific Example 22, 1-(2,4-dihydroxyphenyl)-3-(4-hydroxyphenyl)-1-propanone], the “Mucous Membrane Damage Coefficient” value is reported as 1.4 mm in the experiment on gastric mucous membrane [3] (setting [9]), 57.2 mm with gastric mucous membrane [3] (setting [6]) and 54.2 mm with gastric mucous membrane [3] (setting [7]). The “Inhibition Ratio” value in the experiment on gastric mucous membrane [3] (Table 8, 100 mg/kg p.o.) is 98.8%; with gastric mucous membrane [3] (Table 9, 30 mg/kg p.o.), 32.1%; with gastric mucous membrane [3] (Table 10, 30 mg/kg i.p.), 51.0%.
With `O=C(CCc1ccc(O)cc1)c1c(O)cc(O)cc1O` [Specific Example 23, 1-(2,4,6-trihydroxyphenyl)-3-(4-hydroxyphenyl)-1-propanone], in the experiment on gastric mucous membrane [2] (ip, Table 4, 100 mg/kg i.p.), the inhibition in vivo at 100 mg/kg was 36.7%. Moreover, the “Mucous Membrane Damage Coefficient” value in the experiment with gastric mucous membrane [2] (setting [8]) came out at 45.8 mm; with gastric mucous membrane [3] (setting [9]) it was 67.9 mm. For the same compound, the “Inhibition Ratio” value with gastric mucous membrane [3] (Table 8, 100 mg/kg p.o.) is reported as 43.0%.
For the compound `CC(=O)Oc1c(CC=C(C)C)c(O)cc(O)c1C(=O)CCc1ccc(O)cc1` [Specific Example 24, 1-[2-acetoxy-4,6-hydroxy-3-(3-methyl-2-butenyl)phenyl]-3-(4-hydroxyphenyl)-1-propanone], the inhibition in vivo at 100 mg/kg in the experiment on gastric mucous membrane [2] (ip, Table 4, 100 mg/kg i.p.) is 23%. Besides, in the experiment with gastric mucous membrane [2] (setting [8]), the “Mucous Membrane Damage Coefficient” value was 55.7 mm.
Turning to `O=C(CCc1ccc(O)c(O)c1)c1ccc(O)cc1O` [Specific Example 27, 1-(2,4-dihydroxyphenyl)-3-(3,4-dihydroxyphenyl)-1-propanone], the “Mucous Membrane Damage Coefficient” value in the experiment on gastric mucous membrane [3] (setting [6]) is 1.5 mm; in the experiment with gastric mucous membrane [3] (setting [7]), 60.0 mm. Further, the “Inhibition Ratio” value was found to be 98.2% in the experiment on gastric mucous membrane [3] (Table 9, 30 mg/kg p.o.) and 45.8% in the experiment on gastric mucous membrane [3] (Table 10, 30 mg/kg i.p.).
With `O=C(CCc1ccc(O)c(O)c1)c1c(O)cc(O)cc1O` [Specific Example 28, 1-(2,4,6-trihydroxyphenyl)-3-(3,4-dihydroxyphenyl)-1-propanone], the inhibition in vivo at 100 mg/kg with gastric mucous membrane [2] (ip, Table 4, 100 mg/kg i.p.) was found to be 90%. The “Mucous Membrane Damage Coefficient” value was 7.2 mm in the experiment on gastric mucous membrane [2] (setting [8]) and 15.7 mm in the experiment with gastric mucous membrane [3] (setting [9]). Further, the “Inhibition Ratio” value with gastric mucous membrane [3] (Table 8, 100 mg/kg p.o.) came out at 86.8%.
Regarding `CC(C)CCc1c(O)cc(O)c(C(=O)CCc2ccc(O)cc2)c1OCC(=O)O` [Specific Example 32, 1-(2-carboxymethoxy-4,6-dihydroxy-3-isopentylphenyl)-3-(4-hydroxyphenyl)-1-propanone], in the experiment with gastric mucous membrane [2] (ip, Table 4, 100 mg/kg i.p.), the inhibition in vivo at 100 mg/kg turned out to be 61.3%. In addition, the “Mucous Membrane Damage Coefficient” value in the experiment with gastric mucous membrane [2] (setting [8]) is reported as 28.0 mm.
The matching figures for `COc1ccc(CCC(=O)c2ccc(OC)c(CCC(C)C)c2O)cc1` [Specific Example 33, 1-(2-hydroxy-4-methoxy-3-isopentylphenyl)-3-(4-methoxyphenyl)-1-propanone]: 40.1% and 3.3 mm.
The matching figures for `CC(C)CCc1cc(CCC(=O)c2c(O)cc(O)c(CCC(C)C)c2O)ccc1O` [Specific Example 37, 1-(2,4,6-trihydroxy-3-isopentylphenyl)-3-(4-hydroxy-3-isopentylphenyl)-1-propanone]: 31.1% and 49.8 mm.
